These results are taken from ChEMBL document CHEMBL6109087, “Design and synthesis of azole derivatives of echinocystic acid as α-glucosidase inhibitors with hypoglycemic activity” (Eur J Med Chem, 2025).

The target in series [1] is Alpha-glucosidase (Saccharomyces cerevisiae S288c) (UniProt P53341+P38158+P07265). The experiment in a line: Inhibition of alpha-glucosidase using 4-Nitrophenyl-[…]-D-glucopyranoside (pNPG) as substrate assessed as inhibition rate at 30 uM relative control. It counts as protein assay.
Series [2] addresses T1, Alpha-glucosidase (Saccharomyces cerevisiae S288c, UniProt P53341+P38158+P07265). Kind of series: Inhibition of alpha-glucosidase using 4-Nitrophenyl-[…]-D-glucopyranoside (pNPG) as substrate. The series is classed as protein assay.
The test system of series [3] is alpha-glucosidase (unknown origin). Kind of series: Selectivity index, ratio of CC50 for Cytotoxicity against human LO2 cells to IC50 for alpha-glucosidase (unknown origin). It counts as toxicity, cell-based, L02. Particulars: read-out: Selectivity Index.
Series [4] in a line: Cytotoxicity against human LO2 cells assessed as cell viability measured after 24 hrs by MTT assay. The series is classed as toxicity, cell-based, L02. (Tetrazolium dyes change colour on reduction, which living cells bring about.)
The target of series [5] is T1, Alpha-glucosidase. The experiment in a line: Inhibition of alpha-glucosidase using P-nitro phenyl-alpha-D-glucopyranoside as substrate assessed as substrate hydrolysis. It counts as protein assay.
The test system of series [6] is Mus musculus. Kind of series: Reduction in blood glucose concentration in male C57BL/6J mouse assessed as peak blood glucose and glucose AUC at 100 mg/kg preadministered for 30 mins via gavage followed by treated 2 g/Kg of sucrose and measured up to 120 mins post sucrose challenge by sucrose loading test. It counts as functional, organism-based. Particulars: time 150.0 min.

The target of series [7] is T1, Alpha-glucosidase. Kind of series: Binding affinity to alpha-glucosidase assessed as inhibition constant. The series is classed as protein assay.
For series [8], the target named is T1, Alpha-glucosidase. The experiment in a line: Inhibition of alpha-glucosidase. The series is classed as protein assay.

The source made the active and inactive calls. No cut-off for these calls is given here.

For the compound `CC1(C)CC[C@]2(C(=O)NCc3cn(-c4ccc(Cl)cc4)nn3)[C@H](O)C[C@]3(C)C(=CC[C@@H]4[C@@]5(C)CC[C@H](O)C(C)(C)[C@@H]5CC[C@]43C)[C@@H]2C1`, in series [1], the inhibition (commonly how much of the control response was suppressed) was determined as 69.2%. Besides, the 50% inhibitory concentration (IC50) – broadly, the concentration that gives 50% inhibition – in series [2] came out at 21.19 µM.
The like results for `CC1(C)CC[C@]2(C(=O)OCCn3ncn(-c4ccc(Cl)cc4)c3=O)[C@H](O)C[C@]3(C)C(=CC[C@@H]4[C@@]5(C)CC[C@H](O)C(C)(C)[C@@H]5CC[C@]43C)[C@@H]2C1` were, in that order, 47.7% and 28.69 µM.
Turning to `COc1ccc(-n2cc(CNC(=O)COC(=O)[C@]34CCC(C)(C)C[C@H]3C3=CC[C@@H]5[C@@]6(C)CC[C@H](O)C(C)(C)[C@@H]6CC[C@@]5(C)[C@]3(C)C[C@H]4O)nn2)cc1`, in series [1], the inhibition worked out at 51.4%. Also, the IC50 in series [2] is over 30 µM.
The like results for `CC1(C)CC[C@]2(C(=O)OCc3nnc(-c4ccccc4)o3)[C@H](O)C[C@]3(C)C(=CC[C@@H]4[C@@]5(C)CC[C@H](O)C(C)(C)[C@@H]5CC[C@]43C)[C@@H]2C1` were, in that order, 57.2% and 19.36 µM.
For the compound `CC1(C)CC[C@]2(C(=O)OCCn3ncn(-c4ccc(F)cc4)c3=O)[C@H](O)C[C@]3(C)C(=CC[C@@H]4[C@@]5(C)CC[C@H](O)C(C)(C)[C@@H]5CC[C@]43C)[C@@H]2C1`, the inhibition in series [1] is 56.9%. The compound further registered an IC50 in series [2] of 29.32 µM.
As for `CC1(C)CC[C@]2(C(=O)OCc3nc(-c4ccc(Cl)cc4)no3)[C@H](O)C[C@]3(C)C(=CC[C@@H]4[C@@]5(C)CC[C@H](O)C(C)(C)[C@@H]5CC[C@]43C)[C@@H]2C1`, the selectivity ratio in series [3] worked out at 26.4. Further, the inhibition in series [1] came out at 85.1%. In series [2], this compound showed an IC50 of 4.11 µM. In addition, in series [4], the CC50 (commonly the concentration giving 50% cytotoxicity) at 24 h turned out to be 108 µM.
The like results for `CC1(C)CC[C@]2(C(=O)OCC(=O)NCc3cn(-c4ccc(Cl)c(Cl)c4)nn3)[C@H](O)C[C@]3(C)C(=CC[C@@H]4[C@@]5(C)CC[C@H](O)C(C)(C)[C@@H]5CC[C@]43C)[C@@H]2C1` were, in that order, 58.3, 87.3%, 3.4 µM and 198 µM.
Regarding `CC1(C)CC[C@]2(C(=O)OCC(=O)NCc3cn(-c4ccc(F)cc4)nn3)[C@H](O)C[C@]3(C)C(=CC[C@@H]4[C@@]5(C)CC[C@H](O)C(C)(C)[C@@H]5CC[C@]43C)[C@@H]2C1`, the inhibition in series [1] was found to be 61.5%. In addition, the IC50 in series [2] worked out at 18.52 µM.
In the same order, the values of `CC1(C)CC[C@]2(C(=O)OCc3nc(-c4ccccc4)no3)[C@H](O)C[C@]3(C)C(=CC[C@@H]4[C@@]5(C)CC[C@H](O)C(C)(C)[C@@H]5CC[C@]43C)[C@@H]2C1` are 58.3% and 26.2 µM.
With `COc1ccc(-n2cc(CNC(=O)[C@]34CCC(C)(C)C[C@H]3C3=CC[C@@H]5[C@@]6(C)CC[C@H](O)C(C)(C)[C@@H]6CC[C@@]5(C)[C@]3(C)C[C@H]4O)nn2)cc1`, the inhibition in series [1] stood at 48.5%. In series [2], this compound displayed an IC50 of over 30 µM.
As to `COc1ccc(-c2noc(COC(=O)[C@]34CCC(C)(C)C[C@H]3C3=CC[C@@H]5[C@@]6(C)CC[C@H](O)C(C)(C)[C@@H]6CC[C@@]5(C)[C@]3(C)C[C@H]4O)n2)cc1`, the selectivity ratio in series [3] turned out to be 11.3. Moreover, the inhibition in series [1] is 94.8%. In addition, the IC50 in series [2] was 3.41 µM. Further, the CC50 at 24 h in series [4] was found to be 38.5 µM.
On to `COc1ccc(NC(=O)Cn2cc(COc3cc(O)c4c(=O)c5ccc(OC)cc5oc4c3)nn2)c(OC)c1`, for which the IC50 in series [5] amounted to 2.06 µM.
Consider `Cc1ccc(-n2cc(CNC(=O)[C@]34CCC(C)(C)C[C@H]3C3=CC[C@@H]5[C@@]6(C)CC[C@H](O)C(C)(C)[C@@H]6CC[C@@]5(C)[C@]3(C)C[C@H]4O)nn2)cc1`, for which, in series [1], the inhibition worked out at 63%. In series [2], the IC50 is 21.25 µM.
The like results for `CC1(C)CC[C@]2(C(=O)NCc3cn(-c4ccc(F)cc4)nn3)[C@H](O)C[C@]3(C)C(=CC[C@@H]4[C@@]5(C)CC[C@H](O)C(C)(C)[C@@H]5CC[C@]43C)[C@@H]2C1` were, in that order, 47.7% and over 30 µM.
Consider `CC1(C)CC[C@]2(C(=O)O)[C@H](O)C[C@]3(C)C(=CC[C@@H]4[C@@]5(C)CC[C@H](O)C(C)(C)[C@@H]5CC[C@]43C)[C@@H]2C1`, for which the selectivity ratio in series [3] amounted to 0.94. For the same compound, the inhibition in series [1] was determined as 18.4%. The outcome in series [6] was Active. In addition, the IC50 in series [2] came out at 59.91 µM. In addition, the CC50 at 24 h in series [4] worked out at 56.2 µM.
On to `CC1(C)CC[C@]2(C(=O)OCc3nc(-c4ccc(F)cc4)no3)[C@H](O)C[C@]3(C)C(=CC[C@@H]4[C@@]5(C)CC[C@H](O)C(C)(C)[C@@H]5CC[C@]43C)[C@@H]2C1`, for which the inhibition in series [1] was 64.6%. Moreover, the 50% inhibitory concentration (IC50) in series [2] came out at 16.01 µM.
The like results for `COc1cc(-n2cc(CNC(=O)[C@]34CCC(C)(C)C[C@H]3C3=CC[C@@H]5[C@@]6(C)CC[C@H](O)C(C)(C)[C@@H]6CC[C@@]5(C)[C@]3(C)C[C@H]4O)nn2)cc(OC)c1OC` were, in that order, 6.67% and over 30 µM.
In the case of `CC1(C)CC[C@]2(C(=O)NCc3cn(-c4ccccc4)nn3)[C@H](O)C[C@]3(C)C(=CC[C@@H]4[C@@]5(C)CC[C@H](O)C(C)(C)[C@@H]5CC[C@]43C)[C@@H]2C1`, in series [1], the inhibition was found to be 55.9%. The compound further displayed an IC50 in series [2] of 22.72 µM.
The like results for `CC1(C)CC[C@]2(C(=O)OCc3nnc(-c4ccc(Cl)c(Cl)c4)o3)[C@H](O)C[C@]3(C)C(=CC[C@@H]4[C@@]5(C)CC[C@H](O)C(C)(C)[C@@H]5CC[C@]43C)[C@@H]2C1` were, in that order, 69.8% and 17.25 µM.
In the same order, the values of `CC1(C)CC[C@]2(C(=O)OCc3nc(-c4ccc(Cn5cncn5)cc4)no3)[C@H](O)C[C@]3(C)C(=CC[C@@H]4[C@@]5(C)CC[C@H](O)C(C)(C)[C@@H]5CC[C@]43C)[C@@H]2C1` are 10.5% and over 30 µM.
The like results for `COc1cc(-c2nnc(COC(=O)[C@]34CCC(C)(C)C[C@H]3C3=CC[C@@H]5[C@@]6(C)CC[C@H](O)C(C)(C)[C@@H]6CC[C@@]5(C)[C@]3(C)C[C@H]4O)o2)cc(OC)c1OC` were, in that order, 49.1% and over 30 µM.
Consider `CC1(C)CC[C@]2(C(=O)OCC(=O)NCc3cn(-c4ccc(Br)cc4)nn3)[C@H](O)C[C@]3(C)C(=CC[C@@H]4[C@@]5(C)CC[C@H](O)C(C)(C)[C@@H]5CC[C@]43C)[C@@H]2C1`, for which the inhibition in series [1] came out at 68%. In series [2], this compound showed an IC50 of 23.62 µM.
In the same order, the values of `COc1ccc(-c2nnc(COC(=O)[C@]34CCC(C)(C)C[C@H]3C3=CC[C@@H]5[C@@]6(C)CC[C@H](O)C(C)(C)[C@@H]6CC[C@@]5(C)[C@]3(C)C[C@H]4O)o2)cc1` are 56.5% and 22.28 µM.
`CC1(C)CC[C@]2(C(=O)OCC(=O)NCc3cn(-c4ccc(Cl)cc4)nn3)[C@H](O)C[C@]3(C)C(=CC[C@@H]4[C@@]5(C)CC[C@H](O)C(C)(C)[C@@H]5CC[C@]43C)[C@@H]2C1`: the inhibition in series [1] was found to be 63.3%. This compound also yielded an IC50 in series [2] of 18.18 µM.
The like results for `CC1(C)CC[C@]2(C(=O)OCCn3ncn(-c4ccccc4)c3=O)[C@H](O)C[C@]3(C)C(=CC[C@@H]4[C@@]5(C)CC[C@H](O)C(C)(C)[C@@H]5CC[C@]43C)[C@@H]2C1` were, in that order, 46.1% and over 30 µM.
Turning to `CC1(C)CC[C@]2(C(=O)OCCn3ncn(-c4ccc(Cl)c(Cl)c4)c3=O)[C@H](O)C[C@]3(C)C(=CC[C@@H]4[C@@]5(C)CC[C@H](O)C(C)(C)[C@@H]5CC[C@]43C)[C@@H]2C1`, the selectivity ratio in series [3] came out at 19.5. For the same compound, the inhibition in series [1] turned out to be 80.3%. This compound gave an IC50 in series [2] of 3.42 µM. The CC50 at 24 h in series [4] came out at 66.8 µM.
Turning to `O=C(Cc1cccs1)N[C@@H]1C(=O)N2C(C(=O)O)=C(CSc3nc[nH]n3)CS[C@H]12` [CEFETRIZOLE], the Ki – broadly, a dissociation constant, usually derived from enzyme kinetics or from competition with a known ligand – in series [7] is 0.578 µM. The IC50 in series [8] is 2.1 µM.
For `CC1(C)CC[C@]2(C(=O)OCc3nnc(-c4ccc(Cl)cc4)o3)[C@H](O)C[C@]3(C)C(=CC[C@@H]4[C@@]5(C)CC[C@H](O)C(C)(C)[C@@H]5CC[C@]43C)[C@@H]2C1`, the inhibition in series [1] is 67.3%. Also, the IC50 in series [2] was found to be 21.94 µM.
The like results for `CC1(C)CC[C@]2(C(=O)OCc3nc(-c4ccc(Cl)c(Cl)c4)no3)[C@H](O)C[C@]3(C)C(=CC[C@@H]4[C@@]5(C)CC[C@H](O)C(C)(C)[C@@H]5CC[C@]43C)[C@@H]2C1` were, in that order, 36.5% and over 30 µM.
`COc1ccc(CC2(Cc3cn(-c4ccc(C)cc4)nn3)C(=O)OC(C)(C)OC2=O)cc1`: the IC50 in series [5] is 4.63 µM.
Take `CC1(C)CC[C@]2(C(=O)OCC(=O)NCc3cn(-c4ccccc4)nn3)[C@H](O)C[C@]3(C)C(=CC[C@@H]4[C@@]5(C)CC[C@H](O)C(C)(C)[C@@H]5CC[C@]43C)[C@@H]2C1`: the inhibition in series [1] came out at 59.9%. This compound returned an IC50 in series [2] of 21.7 µM.
`C[C@H]1O[C@H](O[C@H]2[C@H](O)[C@@H](O)[C@@H](O[C@H]3[C@H](O)[C@@H](O)C(O)O[C@@H]3CO)O[C@@H]2CO)[C@H](O)[C@@H](O)[C@@H]1N[C@H]1C=C(CO)[C@@H](O)[C@H](O)[C@H]1O` (some centres not stated): the result in series [6] was Active.
